From paper PMC8006131, “Pulse Dipolar EPR Reveals Double-Histidine Motif Cu^II−NTA Spin-Labeling Robustness against Competitor Ions” (The journal of physical chemistry letters, 2021)
“And” between values parts separate entries of the source, which are not always exact repeats. Equal entries are not always repeated. Where two headings read alike, the source gives them in different places.

Key:
K28H/Q32H GB1 = target: T1, K28H/Q32H GB1 (Streptococcus sp. group G, UniProt P06654, K254H/Q258H); assay: Isothermal titration calorimetry (ITC) at 298 K, single-site binding model
T1 construct: made in house
Experimental: seconds between injections, at 298 K. All solutions were degassed before the use and the final samples were centrifuged immediately before measurements. For the ZnII-NTA measurements, K28H/Q32H GB1 concentration was 800 μΜ, and titrant concentration was 12 mM. For the variable pH measurements, K28H/Q32H GB1 concentration was 75 μM and titrant concentration was 2.5 mM. Blank conditions of either buffer A (42.4 mM Na2HPO4, 7.6 mM KH2PO4, 150 mM NaCl, pH 7.4) titrated against addition of 12 mM titrant, or pH adjusted buffer A titrated against addition of 1.0 or 2.0 mM titrant, were recorded for the competitor and variable pH ITC measurements, respectively.
Subtraction of the blank measurements from the raw data mitigated the heat of dilution. All data analyses were performed in MicroCal Origin 7 (OriginLab, Northampton, MA) and thermodynamic parameters were derived using standard Marquardt fitting of a single-site binding model, as in our previous work.1 The fitted equation is given as:
Where: 3($) is the heat content of the solution at the point of the <th injection, is the binding constant, 4 is the stoichiometry of binding, =7 is the molar heat of ligand binding, 8 is the active cell volume, 56 is the total concentration of macromolecule contained in 8 , :6 is the total concentration of ligand contained in 8 .
1.8 UV-visible Spectroscopy:
All UV-visible absorbance spectra were recorded using a Jenway 67 series UV-vis spectrophotometer, in plastic cuvettes with a path length of 10 mm, in single-beam mode. All spectra are recorded at ambient temperature, and with a wavelength resolution of 1 nm, in the wavelength range 320-800 nm. Each sample was blanked before measurement, and all were repeated in triplicate. Data was processed using the Jenway 67-series software suite, and were exported to ASCII format for plotting and analysis in Matlab. For quantitation of CuII-IDA and CuII-NTA concentration, molar extinction coefficients of 62 M-1 cm-1 and 59 M-1cm-1 at 726 nm, and 800 nm were used, respectively, taken from previous literature.1,11

I6R1/K28H/Q32H GB1 [1] = target: T2, I6R1/K28H/Q32H GB1 (Streptococcus sp. group G, UniProt P06654, I232C/K254H/Q258H); assay: Cu^II-nitroxide RIDME pseudotitration (pulse dipolar EPR); format: binding; settings: for Kd: read-out: fitted dissociation constant (bivariate fit)
T2 construct: MTSL nitroxide spin label on Cys6 (R1 side chain); made in house
Text: (§1) I Experimental Procedures:
(§2) 1.1 Construct Design, Expression and Purification:
(§3) Constructs of Streptococcus sp. group G, protein G B1 domain (GB1) were designed, expressed and purified as previously described.1,2 For completeness the protein sequences for the K28H/Q32H and I6C/K28H/Q32H GB1 constructs are given below in figures S1 and S2, respectively. The positions of the cysteine and double-histidine motif are indicated in cyan and green, respectively.
(§4) K28H/Q32H GB1 Protein Sequence:
(§5) Figure S1. Full amino-acid sequence for the K28H/Q32H GB1 construct used in this work, with each histidine residue of the double-histidine motif shown in green; and residue number indicated above the sequence.
(§6) I6C/K28H/Q32H GB1 Protein Sequence:
Figure S2. Full amino-acid sequence for the I6C/K28H/Q32H GB1 construct used in this work, with the cysteine residue shown in cyan and each histidine residue of the double-histidine motif shown in green; and residue numbers indicated […]
1.2 Pulse EPR Sample Preparation:
All material was exchanged into pH-adjusted deuterated buffer A (42.4 mM Na2HPO4, 7.6 mM KH2PO4, 150 mM NaCl) by first freeze-drying and then re-dissolving in D2O. For Q-band RIDME samples of 6R1/28H/32H GB1, a total volume of 70 μL was used, with protein concentrations of 1, 2, or 5 μM as stated. All EPR samples were frozen by direct immersion into liquid nitrogen. ZnII-NTA and CuII-NTA stock solutions were prepared as previously described1,3; and for labelling, ZnII-NTA and CuII-NTA stock solutions with nominal concentrations of 100 and 10 mM were used, […]
1.3 Metal Chelate Spin Label Preparation:
For preparation of all metal-NTA labels: CuII-NTA, and ZnII-NTA, , ZnCl2, CuCl2 and NTA were weighed in a glove-box and aliquoted into 1.5 mL reaction tubes. Stock solutions of 100 mM were prepared as previously described.3 Complete dissolution was ensured by vortexing until solutions were clear […]
of precipitate. […]
1.5 Pulse EPR Measurements:
All pulse EPR experiments were performed using a Bruker ELEXSYS 580 pulse EPR spectrometer.
Temperatures were maintained using a cryogen-free variable temperature cryostat (Cryogenic Ltd) operating in the 1.8-300 K temperature range. All measurements of the electron spin longitudinal relaxation times (T1) of CuII-NTA, and all 5-pulse dead-time free RIDME measurements4 were performed at 30 K, using a high-power 150 W travelling-wave tube (TWT; Applied Systems […]
an SRT of 2 ms, with 2560 points, 25 shots-per-point, and 1-5 scans, as stated. A τ of 800 ns was used, with an approximate time-window length of […], incremented in steps of 200 ns.
1.6 Competitive Binding Model:
Let us begin by considering a binding equilibrium in presence of a competitor ligand (A), with the following two approximations: i) the binding of the ligand (L) and (A) to a protein (P) is mutually exclusive, and ii) the competitor (A) binds to (P) weakly with respect to (L). Here we can define a dissociation constant for both the ligand (KDL) and for the competitor (KDA), given in (S1) and (S2) […]
Rearranging (S1) and (S2) for equilibrium concentrations of protein and protein-competitor complex, given as [P] and [PA] respectively, yields (S3) and (S4):
Here, an expression for total protein, [P]0, can be defined:
Substitution of (S3) and (S4) into (S5) yields (S6):
Symbolic substitution and rearrangement of (S6) to solve for [PL] yields (S7): […]

I6R1/K28H/Q32H GB1 [2] = target: T2, I6R1/K28H/Q32H GB1; assay: Zn^II–NTA competitor RIDME pseudotitration (competition assay in presence of Cu^II–NTA); format: binding; settings: low μM protein concentration
Experimental: The corresponding RIDME pseudotitration was performed at 1 μM protein concentration in the presence of 10 μM Cu^II– NTA (to ensure quantitative loading at the double histidine motif prior to addition of competitor ligand (see SI section 1.6)) and varying Zn^II–NTA concentrations. […] Additionally, this benchmarks quantitation of Cu^II-nitroxide RIDME modulation depths for remotely determining binding affinities of EPR silent ligands, in a competition assay format.
as §1, §2, §3, §4, §5, §6
Figure S2. […]

I6R1/K28H/Q32H GB1 [3] = target: T2, I6R1/K28H/Q32H GB1; settings: pH 7.4; previous work; read-out: fitted dissociation constant; cited from earlier work
6R1/28H/32H GB1 = target: 6R1/28H/32H GB1; parameters: method as in earlier work; settings: pH 7.4; 75 μM protein, 2 mM CuII-NTA; cited from earlier work
[4] = pH 6.4, 298 K, listed as CuII-NTA

O=C([O-])CN(CC(=O)[O-])CC(=O)[O-].[Cu+2] [Cu^II–NTA, Cu^II-nitrilotriacetic acid]
binding at the double-histidine motif (K28H/Q32H GB1; pH 5.0, 298 K, 75 μM protein, 2 mM Cu^II–NTA): negligible binding | Wiseman factor (K28H/Q32H GB1; pH 6.4): 0.76 | n (stoichiometry of binding) (K28H/Q32H GB1; pH 6.4, 298 K): ~ 1 | ΔH (K28H/Q32H GB1; pH 6.4, 298 K): -6.9 kcal/mol | n (stoichiometry of binding) (K28H/Q32H GB1; [4]): 0.97 | ΔH (K28H/Q32H GB1; [4]): -6.94 kcal/mol | Kd (K28H/Q32H GB1; pH 6.4, 298 K, read-out: KD): 98.6 µM | Kd (K28H/Q32H GB1; pH 6.4, ΔH extrapolated to 235 K, listed as CuII-NTA, read-out: Predicted KD at 235 K): 4.26 µM | Kd (K28H/Q32H GB1; pH 6.4, ΔH extrapolated to 235 K, read-out: Predicted KD at 235 K): ~4 µM | Wiseman factor (K28H/Q32H GB1; pH 8.4): 9.42 | n (stoichiometry of binding) (K28H/Q32H GB1; pH 8.4, 298 K): ~ 2 | ΔH (K28H/Q32H GB1; pH 8.4, 298 K): -15.2 kcal/mol | n (stoichiometry of binding) (K28H/Q32H GB1; pH 8.4, 298 K, listed as CuII-NTA): 2.04 | Kd (K28H/Q32H GB1; pH 8.4, 298 K, listed as CuII-NTA, read-out: KD): 7.96 µM | Kd (K28H/Q32H GB1; pH 8.4, 298 K, read-out: KD): 8 µM | predicted increase in affinity compared to previous work (K28H/Q32H GB1; pH 8.4, predicted from room-temperature ITC): 20 fold | Wiseman factor (K28H/Q32H GB1; pH 9.0): 3.00 | ΔH (K28H/Q32H GB1; pH 9.0, 298 K): -2.92 kcal/mol | n (stoichiometry of binding) (K28H/Q32H GB1; pH 9.0, 298 K, 1 mM CuII-NTA): 0.94 | Kd (K28H/Q32H GB1; pH 9.0, 298 K, read-out: KD): 25 µM | Kd (K28H/Q32H GB1; pH 9.0, read-out: Predicted KD at 235 K): 6.67 µM | affinity reduction compared to pH 7.4 (I6R1/K28H/Q32H GB1 [1]; pH 6.4): 2 fold | available double-histidine motifs saturated (I6R1/K28H/Q32H GB1 [1]; pH 6.4, 5 μM protein, 1 equiv of Cu^II–NTA): ~70% | Kd (I6R1/K28H/Q32H GB1 [1]; pH 6.4, 5 μM protein): 0.31 µM and 0.308 µM | binding affinity higher than at pH 7.4 (I6R1/K28H/Q32H GB1 [1]; pH 8.4): approximately 2 fold | Kd (I6R1/K28H/Q32H GB1 [1]; pH 8.4, 2 μM protein): 0.091 µM | robust against Zn^II–NTA competitor ligand in molar excess (I6R1/K28H/Q32H GB1 [2]): > 1000 fold | Kd (I6R1/K28H/Q32H GB1 [3]): 0.14 µM | Kd (6R1/28H/32H GB1): 5 µM
